SMILES strings stand for the structures. Numbering of substitutions follows the chain as printed.

Holding throughout (test): isothermal titration calorimetry
Type in all cases: binding
(ITC needs no label: the signal is the heat of the interaction.)

Experiment [1] deals with T1, DOCK8 DHR-1 domain (Mus musculus, UniProt Q8C147).
T1 construct: DHR-1 domain, residues 558-740, pGEX6P-1, E. coli ArcticExpress DE3; GST tag cut with PreScission for ITC, GST fusion kept in vesicle assays
T1 sequence (Q8C147 558-740): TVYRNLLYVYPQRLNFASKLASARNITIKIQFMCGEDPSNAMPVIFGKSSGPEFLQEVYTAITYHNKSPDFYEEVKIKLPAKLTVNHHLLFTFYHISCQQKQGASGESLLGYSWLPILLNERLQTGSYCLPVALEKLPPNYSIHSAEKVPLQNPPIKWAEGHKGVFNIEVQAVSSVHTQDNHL

Experiment [2] concerns the target T2, DOCK8 DHR-1 domain (Mus musculus, UniProt Q8C147, R581A).
T2 construct: DHR-1 domain, residues 558-740, pGEX6P-1, E. coli ArcticExpress DE3; GST tag cut with PreScission for ITC, GST fusion kept in vesicle assays
T2 sequence (Q8C147 558-740 R581A): T1 sequence (Q8C147 558-740) with R24A

The target of experiment [3] is T3, DOCK8 DHR-1 domain (Mus musculus, UniProt Q8C147, K576A).
T3 construct: DHR-1 domain, residues 558-740, pGEX6P-1, E. coli ArcticExpress DE3; GST tag cut with PreScission for ITC, GST fusion kept in vesicle assays
T3 sequence (Q8C147 558-740 K576A): T1 sequence (Q8C147 558-740) with K19A
An excerpt: (§1) isothermal titration calorimetry on DOCK8 DHR-1 domain | Mutations R570A, K576A, and R581A led to two to threefold reduction in the binding affinity

In experiment [4] the target is T4, DOCK8 DHR-1 domain (Mus musculus, UniProt Q8C147, R570A).
T4 construct: DHR-1 domain, residues 558-740, pGEX6P-1, E. coli ArcticExpress DE3; GST tag cut with PreScission for ITC, GST fusion kept in vesicle assays
T4 sequence (Q8C147 558-740 R570A): T1 sequence (Q8C147 558-740) with R13A
From the text: as §1

Experiment [5] has as its target T5, DOCK8 DHR-1 domain (Mus musculus, UniProt Q8C147, K576A/R581A).
T5 construct: DHR-1 domain, residues 558-740, pGEX6P-1, E. coli ArcticExpress DE3; GST tag cut with PreScission for ITC, GST fusion kept in vesicle assays
T5 sequence (Q8C147 558-740 K576A/R581A): T1 sequence (Q8C147 558-740) with K19A, R24A
As to conditions: 20 mM Tris-HCl pH 8.0, 16 mM NaCl, 25 °C; GST tag removed.

For `CCCCCCCC(=O)OC[C@H](COP(=O)(O)O[C@H]1[C@H](O)[C@@H](OP(=O)(O)O)[C@H](OP(=O)(O)O)[C@@H](OP(=O)(O)O)[C@H]1O)OC(=O)CCCCCCC` [diC8-PI(3,4,5)P3], the Kd at DOCK8 DHR-1 domain [1] was determined as 26.9 ± 3 µM.
Turning to `CCCCCCCC(=O)OC[C@H](COP(=O)(O)O[C@@H]1[C@H](O)[C@H](O)[C@@H](OP(=O)(O)O)[C@H](OP(=O)(O)O)[C@H]1O)OC(=O)CCCCCCC` [diC8-PI(4,5)P2], the equilibrium dissociation constant (Kd) on DOCK8 DHR-1 domain [2] was found to be 64.2 ± 7.7 µM; on DOCK8 DHR-1 domain [3], 37.1 ± 8 µM; on DOCK8 DHR-1 domain [4], 42.9 ± 3.1 µM; at DOCK8 DHR-1 domain [1] it was 19.5 ± 3.7 µM. Further, the no binding detected result on DOCK8 DHR-1 domain [5] is given as “Consistently, no binding was observed for KARA mutant”.

A word on the Kd: it is a measure of binding affinity in units of concentration. The low end stands for a tighter complex, the high end for a looser complex.

Values taken from PMC7893821, “A conserved PI(4,5)P2–binding domain is critical for immune regulatory function of DOCK8” (Life Science Alliance, 2021).
